Data from paper PMC5059489, “Mechanistic evaluation and transcriptional signature of a glutathione S-transferase omega 1 inhibitor” (Nature Communications, 2016).
“And” between values parts separate entries of the source, which are not always exact repeats. Equal values may be shown once.

Experiments:
HCT116p53+/+ cell = assay: MTT cell proliferation at single concentration; assay type: cell-based, human
In short: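 Cancer cells attached overnight, exposed to GSTO1 inhibitors for 72 h, then MTT added for 3 h at 37 °C; formazan dissolved in DMSO, absorbance read at 570 nm. At least three independent dose–response experiments, triplicate per concentration.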

GSTO1 [1] = biological target: T1, GSTO1 (Homo sapiens, UniProt P78417); assay: GSTO1 substrate assay (reduction of 4-NPG); settings: for IC50: read-out: GSTO substrate assay IC50, cluster screening tables
T1 sequence (P78417 1-241): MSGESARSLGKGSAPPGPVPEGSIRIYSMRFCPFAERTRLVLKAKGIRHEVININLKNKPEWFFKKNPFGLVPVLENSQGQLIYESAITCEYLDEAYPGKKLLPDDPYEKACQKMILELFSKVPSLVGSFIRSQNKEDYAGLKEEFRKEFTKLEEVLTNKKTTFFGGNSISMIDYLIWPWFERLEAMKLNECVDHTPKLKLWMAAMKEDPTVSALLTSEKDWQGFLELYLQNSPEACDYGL
Description: For activity screening, we adapted a GSTO1 substrate assay that relies on the quantification of the reduction of S-(4-nitrophenacyl)glutathione (4-NPG), a GSTO1-specific substrate[17], using recombinant human GSTO1 in a high-throughput screening format.
Enzyme activity was measured by monitoring the reduction of 4-NPG to 4-nitroacetophenone by GSTO1.

GSTO1 [2] = biological target: T1, GSTO1; assay: In-gel fluorescence competitive CMFDA binding assay, recombinant GSTO1; settings: inhibition of CMFDA binding
Excerpt: (§1) Primary screening of GSTO inhibitors was based on competitive inhibition of CMFDA binding to endogenous GSTO. Briefly, HCT116^p53+/+ cells (4 × 10^4 per well) were coated in a 12-well plate. […] Cells were then washed with PBS and lysed using Cell Lytic M buffer (Sigma). […] Gels were immediately scanned on a Typhoon variable mode imager (Amersham Bioscience). Quantification of fluorescent band intensity was done using Image Quant 5.2 software.

endogenous GSTO1 = biological target: T2, endogenous GSTO1 (Homo sapiens, UniProt P78417); assay: In-gel fluorescence competitive CMFDA binding assay, endogenous GSTO1 in HCT116; settings: 10 µM; inhibition of CMFDA binding, HCT116
T2 sequence (P78417 1-241): T1 sequence (P78417 1-241)
Excerpt: as §1

Row | Compound | GSTO substrate assay % Inhibition at 10 µM (GSTO1 [1]) [%] | IC50 (GSTO1 [1]) [nM] | GSTO binding assay (% Inhibition at 10 µM) Recombinant (GSTO1 [2]) [%] | GSTO binding assay (% Inhibition at 10 µM) Endogenous (endogenous GSTO1) [%] | % Inhibition of HCT116p53+/+ cell proliferation at 10 µM (HCT116p53+/+ cell)
1 | O=C(CCl)NC1CCN(Cc2ccccc2)CC1 [C2-2] | 90.5 |  | 6.5 | 66.7 | 1.1%
2 | CN(CC1COc2ccccc2O1)C(=O)CCl (stereo not drawn) [C4-8] | 97.2 | 237 | 59.5 | 53.0 | 70.7%
3 | CCN(CC(=O)NC1CCS(=O)(=O)C1)C(=O)CCl (stereo not drawn) [C4-13] | 27.2 |  | 5.1 | 7.3 | 62.3% and 67.3%
4 | O=C(CCl)NCC1COc2ccccc2O1 (stereo not drawn) [C3-9] | 80.7 |  | 30.7 | 53.9 | 24.9%
5 | O=C(CCl)NCCCSc1ccccc1 [C3-14] | 78.4 |  | 38.8 | 56.4 | 28.5%
6 | O=C(CCl)Nc1cc(C2CC2)nn1-c1ccccc1 [C2-5] | 4.4 |  | 64.1 | 69.4 | -2.7% and -8.6%
7 | C=CCSc1ccccc1NC(=O)CCl [C1-5] | 96.3 |  | 52.9 | 22.9 | -3.8% and -2.6%
8 | O=C(CCl)Nc1nc2cc3c(cc2s1)OCCO3 [C2-27] | 85.1 | 8670 | 69.0 | 59.6 | 42.6% and 38.2%
9 | CN(Cc1cnn(-c2ccccc2)c1)C(=O)CCl [C4-10] | 99.5 | 1950 | 66.4 | 53.1 | 82.1%

Continued, in another order:

Row | GSTO substrate assay % Inhibition at 10 µM (GSTO1 [1]) [%] | IC50 (GSTO1 [1]) [nM] | GSTO binding assay (% Inhibition at 10 µM) Recombinant (GSTO1 [2]) [%] | GSTO binding assay (% Inhibition at 10 µM) Endogenous (endogenous GSTO1) [%] | Compound | % Inhibition of HCT116p53+/+ cell proliferation at 10 µM (HCT116p53+/+ cell)
10 | 58.2 | 559 | 52.5 | 66.2 | CC(C)C(C#N)N1CCN(C(=O)CCl)CC1 (stereo not drawn) [C5-2] | 40.2% and 61.1%
11 | 72.8 | 338 | 65.1 | 53.1 | O=C(CCl)N1CCN(Cc2ccccc2F)CC1 [C5-7] | -2.0% and -4.5%
12 | 32.6 |  | 66.3 | 30.0 | Cc1cccc2sc(N(Cc3ccccc3)C(=O)CCl)nc12 [C4-16] | 86.3% and 89.8%
13 | 1.0 |  | 68.6 | 22.7 | O=C(CCl)N1N=C(c2cccs2)CC1c1ccco1 (stereo not drawn) [C5-22] | 41.2%
